In ChEMBL document CHEMBL5620390, “A novel multifunctional mitochondrion-targeting NIR fluorophore probe inhibits tumour proliferation and metastasis through the PPARγ/ROS/β-catenin pathway” (Eur J Med Chem, 2023):
The source made the active and inactive calls. No cut-off for these calls is given here.

What was measured:
[1] = Drug uptake in human A549 cells assessed as fluorescence intensity at 2.5 uM incubated for 1 hr by confocal laser scanning microscopic analysis; assay type: ADME, cell-based; conditions: a549, 1 h
[2] = Drug uptake in human HeLa cells assessed as fluorescence intensity at 2.5 uM incubated for 1 hr by confocal laser scanning microscopic analysis; assay type: ADME, cell-based
[3] = Drug uptake in mouse B16-F10 cells implanted in C57BL/6J mouse assessed as fluorescence aggregation in tumor at 3 mg/kg, iv measured after 3 to 6 hrs; assay type: ADME, organism-based; conditions: in vivo, time 3-6 hrs
[4] = Drug uptake in mouse B16-F10 cells implanted in C57BL/6J mouse assessed as fluorescence aggregation in liver at 3 mg/kg, iv measured after 12 hrs; assay type: ADME, organism-based; conditions: in vivo
[5] = Drug uptake in human A-375 cells mitochondria at 2.5 uM incubated for 45 mins by mito-tracker green dye based confocal laser scanning fluorescence microscopy analysis; assay type: ADME; conditions: a-375, 0.75 h
B16-F10 [6] = experiment: Induction of mitochondrial damage in mouse B16-F10 cells assessed as change in mitochondrial morphology at 2.5 uM incubated for 24 hrs by TEM analysis; assay type: functional, cell-based
B16-F10 [7] = experiment: Induction of mitochondrial damage in mouse B16-F10 cells assessed as increase in ROS production at 2.5 uM after 5 to 60 mins by DCFH-DA staining based flow cytometry analysis; assay type: functional, cell-based; conditions: time 5-60 min
B16-F10 [8] = experiment: Induction of mitochondrial damage in mouse B16-F10 cells assessed as increase in ROS production measured upto 120 mins by DCFH-DA staining based flow cytometry analysis; assay type: functional, cell-based; conditions: dose 0.16-2.5 µM
A-375 [9] = experiment: Induction of ROS generation in human A-375 cells assessed as reduction in GPX1 expression level at 0.31 to 1.25 uM incubated for 24 hrs; assay type: functional, cell-based; conditions: dose 0.31-1.25 µM
[10] = Cytotoxicity against human A-375 cells assessed as cell viability at 40 uM incubated for 24 hrs by MTT assay; assay type: toxicity, cell-based; conditions: read-out: Activity
A-375 [11] = experiment: Inhibition of ROS generation in human A-375 cells preincubated with rosiglitazone for 2 hrs followed by wash out and compound addition for 1 hr by DCFH-DA staining based inverted fluorescence microscopic analysis; assay type: functional, cell-based
A-375 [12] = experiment: Induction of ROS generation in human A-375 cells assessed as reduction in PPARgamma expression level at 1.25 uM incubated for 24 hrs; assay type: functional, cell-based
A-375 [13] = experiment: Induction of ROS generation in human A-375 cells assessed as reduction in PPARgamma expression level at 1.25 uM preincubated with rosiglitazone for 24 hrs followed by compound addition for 24 hrs; assay type: functional, cell-based
B16-F10 [14] = experiment: Induction of ROS generation in mouse B16-F10 cells assessed as reduction in PPARgamma expression level at 1.25 uM preincubated with rosiglitazone for 24 hrs followed by compound addition for 24 hrs; assay type: functional, cell-based
A-375 [15] = experiment: Induction of ROS generation in human A-375 cells assessed as reduction in GPX1 expression level at 1.25 uM preincubated with rosiglitazone for 24 hrs followed by compound addition for 24 hrs; assay type: functional, cell-based
HeLa = experiment: Antiproliferative activity against human HeLa cells assessed as inhibition of cell growth at 0.31 uM after 72 hrs by MTT assay; assay type: functional; design: scale not given: the % may be the effect or the level left
B16-F10 [16] = experiment: Antiproliferative activity against mouse B16-F10 cells assessed as inhibition of cell growth at 0.31 uM after 72 hrs by MTT assay; assay type: functional; design: scale not given: the % may be the effect or the level left
A-375 [17] = experiment: Inhibition of colony formation in human A-375 cells at less than 0.63 uM by crystal violet staining based assay; assay type: functional, cell-based
B16-F10 [18] = experiment: Inhibition of cell migration in mouse B16-F10 cells after 24 hrs by transwell assay; assay type: functional, cell-based; conditions: dose 0.31-1.25 µM
B16-F10 [19] = experiment: Inhibition of Wnt/beta-catenin signaling in mouse B16-F10 cells assessed as reduction in beta-catenin expression at 1.25 uM incubated for 24 hrs; assay type: cell-based
B16-F10 [20] = experiment: Inhibition of Wnt/beta-catenin signaling in mouse B16-F10 cells assessed as reduction in TCF4 expression at 1.25 uM incubated for 24 hrs; assay type: cell-based
B16-F10 [21] = experiment: Inhibition of Wnt/beta-catenin signaling in mouse B16-F10 cells assessed as reduction in TCF4 expression at 1.25 uM preincubated with rosiglitazone for 24 hrs followed by compound addition and measured after 24 hrs in presence of H2O2; assay type: cell-based
B16-F10 [22] = experiment: Induction of cell cycle arrest in mouse B16-F10 cells assessed as P27 protein accumulation at 0.31 to 1.25 uM after 24 hrs by Western blotting analysis; assay type: functional, cell-based; conditions: dose 0.31-1.25 µM
A-375 [23] = experiment: Inhibition of cell metastasis in human A-375 cells assessed as reduction in MMP9 protein level at 0.31 to 1.25 uM after 24 hrs by Western blotting analysis; assay type: functional, cell-based; conditions: dose 0.31-1.25 µM
B16-F10 [24] = experiment: Inhibition of cell metastasis in mouse B16-F10 cells assessed as reduction in MMP2 protein level at 0.31 to 1.25 uM after 24 hrs by Western blotting analysis; assay type: functional, cell-based; conditions: dose 0.31-1.25 µM
A-375 [25] = experiment: Antitumor activity against human GFP-stained A-375 cells inoculated in zebrafish assessed as reduction in tumor growth by measuring tumor fluorescence intensity; assay type: functional, cell-based
B16-F10 [26] = experiment: Antitumor activity against mouse B16-F10 cells inoculated in C57BL/6J mouse assessed as reduction in tumor weight at 0.5 to 2 mg/kg, ip administered every other day and measured on day 22; assay type: functional, organism-based; conditions: dose 0.5-2 mg/kg, time 22.0 day
B16-F10 [27] = experiment: Antitumor activity against mouse B16-F10 cells inoculated in C57BL/6J mouse assessed as reduction in tumor volume at 0.5 to 2 mg/kg, ip administered every other day and measured on day 22; assay type: functional, organism-based; conditions: dose 0.5-2 mg/kg, time 22.0 day
B16-F10 [28] = experiment: Antitumor activity against mouse B16-F10 cells inoculated in C57BL/6J mouse assessed as reduction in tumor growth at 0.5 to 2 mg/kg, ip administered every other day and measured on day 22; assay type: functional, organism-based; conditions: dose 0.5-2 mg/kg, time 22.0 day
[29] = Toxicity in C57BL/6J mouse inoculated with mouse B16-F10 cells assessed as effect on liver morphology at 2 mg/kg, ip administered every other day for 22 days by H and E staining based assay; assay type: organism-based; conditions: in vivo, 528 h, time 22 day
[30] = Toxicity in C57BL/6J mouse inoculated with mouse B16-F10 cells assessed as effect on kidney morphology at 2 mg/kg, ip administered every other day for 22 days by H and E staining based assay; assay type: organism-based; conditions: in vivo, 528 h, time 22 day
[31] = Renal toxicity in C57BL/6J mouse inoculated with mouse B16-F10 cells assessed as change in CREA level at 2 mg/kg, ip administered every other day for 22 days; assay type: organism-based; conditions: in vivo, 528 h, time 22 day
[32] = Toxicity in mouse inoculated with mouse B16-F10 cells assessed as change in body weight at 2 mg/kg, ip administered every other day and measured on day 18; assay type: organism-based; conditions: in vivo, 432 h, time 18 day
B16-F10 [33] = experiment: Antitumor activity against mouse B16-F10 cells inoculated in mouse assessed as reduction in tumor metastasis at 2 mg/kg, ip administered every other day and measured on day 18 by H and E staining based assay; assay type: functional, organism-based; conditions: time 18.0 day
B16-F10 [34] = experiment: Antitumor activity against mouse B16-F10 cells inoculated in mouse assessed as reduction in spleen metastasis at 2 mg/kg, ip administered every other day and measured on day 18 by H and E staining based assay; assay type: functional, organism-based; conditions: time 18.0 day
B16-F10 [35] = experiment: Antitumor activity against mouse B16-F10 cells inoculated in mouse assessed as reduction in MMP9 expression at 2 mg/kg, ip administered every other day and measured on day 18 by immunohistochemistry analysis; assay type: functional, organism-based; conditions: time 18.0 day

For `CC[N+]1=C(/C=C/C2=C(Cl)C(=C/C=C3\N(CCCCCC(=O)O/C(=N/C4CCCCC4)NC4CCCCC4)c4ccccc4C3(C)C)/CCC2)C(C)(C)c2ccccc21.[Br-]`, the Drug uptake [1] was “Active”, the Drug uptake [2] was “Active” and the Drug uptake [3] was “Active”. The Drug uptake [4] was “Active”, the Drug uptake [5] was “Active” and the Activity (B16-F10 [6]) was “Active”. The Activity (B16-F10 [7]) was “Active”, the Activity (B16-F10 [8]) was “Dose-Dependent Effect” and the Activity (A-375 [9]) was “Active”. The viability at 24 h, 40 µM [10] was 90%, the Activity (A-375 [11]) was “Dose-Dependent Effect” and the Activity (A-375 [12]) was “Active”. The Activity (A-375 [13]) was “inactive”, the Activity (B16-F10 [14]) was “inactive” and the Activity (A-375 [15]) was “inactive”. For the same molecule, the Activity (HeLa) was 70%, the Activity (B16-F10 [16]) was 70% and the inhibition (A-375 [17]) was “Active”. For the same molecule, the inhibition (B16-F10 [18]) was “Dose-Dependent Effect”, the inhibition (B16-F10 [19]) was “Active” and the inhibition (B16-F10 [20]) was “Active”. For the same molecule, the Activity (B16-F10 [21]) was “inactive”, the Activity (B16-F10 [22]) was “Active” and the inhibition (A-375 [23]) was “Active”. The inhibition (B16-F10 [24]) was “Active”, the Activity (A-375 [25]) was “Active” and the Activity (B16-F10 [26]) was “Active”. For the same molecule, the Activity (B16-F10 [27]) was “Active”, the Activity (B16-F10 [28]) was “Active” and the Activity [29] was “Non-Toxic”. For the same molecule, the Activity [30] was “Non-Toxic”, the Activity [31] was “Non-Toxic” and the Activity [32] was “Non-Toxic”. For the same molecule, the Activity (B16-F10 [33]) was “Active”, the Activity (B16-F10 [34]) was “Active” and the Activity (B16-F10 [35]) was “Active”.
